From patent US8778939B2, “Compounds” (Glaxo Group Limited, priority 2009, dated 2014)

Experiments:
[1] = target: T1, 6His-Tev-LRRK2 (1326-2527) (Homo sapiens, UniProt Q5S007); experiment: LRRK2 peptide substrate assay; type: biochemical; settings: Biotin-LRRKtide peptide substrate, ATP at Km
T1 construct: A LRRK2 cDNA encoding residues 1326-2527 was received from Dundee University; made in house; host or cells: Spodoptera frugiperda (Sf9) insect cells, baculovirus
T1 sequence (Q5S007 1326-2527): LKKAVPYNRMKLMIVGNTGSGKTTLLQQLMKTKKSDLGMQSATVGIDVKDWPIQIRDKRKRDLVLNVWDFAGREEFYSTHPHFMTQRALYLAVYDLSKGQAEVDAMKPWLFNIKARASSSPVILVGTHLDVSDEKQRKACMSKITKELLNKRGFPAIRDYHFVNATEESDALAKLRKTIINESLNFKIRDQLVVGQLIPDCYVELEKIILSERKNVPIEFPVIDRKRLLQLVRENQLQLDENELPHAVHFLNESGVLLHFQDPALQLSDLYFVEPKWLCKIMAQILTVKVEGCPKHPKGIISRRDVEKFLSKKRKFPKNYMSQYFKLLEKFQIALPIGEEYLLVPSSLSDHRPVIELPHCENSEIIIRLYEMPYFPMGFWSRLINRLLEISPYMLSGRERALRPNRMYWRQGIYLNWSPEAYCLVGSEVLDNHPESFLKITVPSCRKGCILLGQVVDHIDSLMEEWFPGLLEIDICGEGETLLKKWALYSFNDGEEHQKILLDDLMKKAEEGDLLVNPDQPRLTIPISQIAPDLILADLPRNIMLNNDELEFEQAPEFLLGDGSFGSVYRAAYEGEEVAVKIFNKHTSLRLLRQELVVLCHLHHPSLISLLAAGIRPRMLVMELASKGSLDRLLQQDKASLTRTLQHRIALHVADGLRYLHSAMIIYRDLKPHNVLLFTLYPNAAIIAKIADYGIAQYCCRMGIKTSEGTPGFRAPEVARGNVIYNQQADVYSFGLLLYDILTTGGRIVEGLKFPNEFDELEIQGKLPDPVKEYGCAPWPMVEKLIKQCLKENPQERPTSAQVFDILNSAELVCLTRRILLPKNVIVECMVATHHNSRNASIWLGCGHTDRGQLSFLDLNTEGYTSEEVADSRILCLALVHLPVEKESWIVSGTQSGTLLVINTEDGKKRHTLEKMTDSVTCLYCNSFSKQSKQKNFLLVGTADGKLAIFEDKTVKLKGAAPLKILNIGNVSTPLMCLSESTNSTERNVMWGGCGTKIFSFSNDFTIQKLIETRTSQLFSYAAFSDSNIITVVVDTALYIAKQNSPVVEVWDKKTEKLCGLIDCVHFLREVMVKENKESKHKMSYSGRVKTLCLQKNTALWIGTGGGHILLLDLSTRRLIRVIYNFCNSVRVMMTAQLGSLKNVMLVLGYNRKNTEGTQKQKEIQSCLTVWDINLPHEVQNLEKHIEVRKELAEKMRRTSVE
Protocol: Compounds of formula (I) may be tested for in vitro kinase activity in accordance with the following assays, using the non natural, in vitro, substrates moesin and the Longer Biotin-LRRKtide. Moesin and a shorter version of the peptide were identified as substrates in Jaleel et al, (2007, Biochem J, 405: 307-317).
LRRK2 Peptide Substrate Assay
(§1) a) 100 nl of a 1:4 serial dilution of test compound with a top final assay concentration of 30 μM is added to certain wells in a low volume 384 well black plate. 100 nl of DMSO is used in certain wells as controls.
b) 3 μl enzyme solution (80 nM purified recombinant 6His-Tev-LRRK2 (1326-2527) in assay buffer: 50 mM Hepes (pH 7.2), 10 mM MgCl2, 150 mM NaCl, 5% glycerol, 0.0025% triton X-100 and 1 mM DTT) is added to certain wells. […] Plates are then incubated for a further 1-2 hours at room temperature (incubation time varies depending upon rate and linearity of reaction with differing enzyme batches). d) 6 μl detection solution (50 nM Streptavidin SureLight® APC (PerkinElmer), 4 nM Eu-W1024 labelled anti-rabbit IgG antibody (PerkinElmer), 1:500 dilution (dilution determined on a batch to batch basis) of Phospho-Ezrin (Thr567)/Radixin (Thr564)/Moesin (Thr558) Polyclonal Antibody (New England Biolabs) and 60 mM EDTA in buffer: 40 mM Hepes (pH 7.2), 150 mM NaCl, 0.03% BSA) is added to each well. Plates are then incubated for a further 2 hours at room temperature before reading on a suitable plate reader (Excitation 330 nm, emission 620 nm (Eu) and 665 nm (APC)). Data is analysed using ActivityBase software (IDBS). LRRK2 AlphaScreen Protein Substrate Assay

[2] = target: T1, 6His-Tev-LRRK2 (1326-2527); experiment: LRRK2 AlphaScreen desensitised protein substrate assay; type: biochemical
Protocol: as §1
b) 3 μl enzyme solution (80 nM purified recombinant 6His-Tev-LRRK2 (1326-2527) in assay buffer: 50 mM Hepes (pH 7.2), 10 mM MgCl2, 150 mM NaCl, 5% glycerol, 0.0025% triton X-100 and 1 mM DTT) is added to certain wells.
Plates are then incubated for a further 1-2 hours at room temperature (incubation time varies depending upon rate and linearity of reaction with differing enzyme batches).
d) 6 μl detection solution (1:250 dilution of AlphaLisa Protein A Acceptor beads (PerkinElmer), 1:64 dilution of AlphaLisa Gluthathione Donor beads (PerkinElmer) and 1:600 dilution (dilution determined on a batch to batch basis) of Phospho-Ezrin (Thr567)/Radixin (Thr564)/Moesin (Thr558) Polyclonal Antibody (New England Biolabs) in a buffer: 50 mM Hepes (pH 7.5), 250 mM NaCl, 60 mM EDTA, 1% PEG and 0.01% Brij 35) is added to each well. Plates are then incubated for a further 2 hours at room temperature in the dark before reading on an EnVision™ plate reader with AlphaScreen HTS turbo option module and AlphaScreen settings. Data is analysed using ActivityBase software (IDBS).
LRRK2 AlphaScreen Desensitised Protein Substrate Assay
This is conducted as described for the LRRK2 alphascreen protein substrate assay, with the following differences: • 1. The concentration of ATP in the substrate solution was 2 mM. • 2. The plates were incubated for 20 minutes at room temperature following addition of the substrate solution. Pharmacological Data

[3] = read-out: pIC50 in the LRRK2 peptide substrate assay (converted)
[4] = excess of ATP present (2 mM ATP), read-out: pIC50 in the LRRK2 alphascreen desensitised protein substrate assay (converted)
[5] = mean pIC50, read-out: LRRK2 peptide substrate assay (pIC50) (converted)
[6] = mean pIC50, GST-PS-Moesin (400-577) substrate, 2 mM ATP (excess of ATP present), read-out: LRRK2 alphascreen desensitised protein substrate assay (pIC50) (converted)

Compound | IC50 [1, 3] [nM] | IC50 [1, 5] [nM] | IC50 [2, 4] [nM] | IC50 [2, 6] [nM]
O=C(Nc1cccnc1)c1cc(-c2ccnc(F)c2)ccc1OCc1ccccc1 [Example 104, 5-(2-Fluoro-4-pyridinyl)-2-[(phenylmethyl)oxy]-N-3-pyridinylbenzamide] | ≤ 10 | – | ≤ 20000 | –
Cn1cc(-c2ccc(OCc3ccccc3)c(C(=O)Nc3ccnnc3)c2)cn1 [Example 73, 5-(1-Methyl-1H-pyrazol-4-yl)-2-[(phenylmethyl)oxy]-N-4-pyridazinylbenzamide] | ≤ 10 | – | ≤ 20000 | –
O=C(Nc1cccnc1F)c1cc(C(=O)N2CCOCC2)ccc1OCc1ccc(F)cc1F [Example 125, 2-{[(2,4-Difluorophenyl)methyl]oxy)-N-(2-fluoro-3-pyridinyl)-5-(4-morpholinylcarbonyl)benzamide] | ≤ 100 | – | ≤ 20000 | –
COC(=O)NCc1ccc(OCc2ccc(F)cc2)c(C(=O)Nc2cccnc2)c1 [Example 118, Methyl ({4-{[(4-fluorophenyl)methyl]oxy}-3-[(3-pyridinylamino)carbonyl]phenyl}methyl)carbamate] | ≤ 10 | – | ≤ 20000 | –
O=C(Nc1cccnc1)c1cc(-c2ccn[nH]2)ccc1OCc1ccc(F)c(F)c1 [Example 107, 2-{[(3,4-Difluorophenyl)methyl]oxy}-5-(1H-pyrazol-5-yl)-N-3-pyridinylbenzamide] | ≤ 10 | – | ≤ 20000 | –
O=C(Nc1cccnc1)c1cc(-c2ccncc2)ccc1OCc1ccc(F)cc1 [Example 90, 2-{[(4-Fluorophenyl)methyl]oxy}-N-3-pyridinyl-5-(4-pyridinyl)benzamide] | ≤ 10 | – | ≤ 20000 | –
O=C(Nc1ccnnc1)c1cc(CN2CCOCC2)ccc1OCc1ccc(F)cc1 [Example 119, 2-{[(4-Fluorophenyl)methyl]oxy}-5-(4-morpholinylmethyl)-N-4-pyridazinyl benzamide] | ≤ 100 | – | ≤ 20000 | –
O=C(Nc1ccnnc1)c1cc(-c2ccncc2)ccc1OCc1ccc(F)cc1 [Example 89, 2-{[(4-Fluorophenyl)methyl]oxy}-N-4-pyridazinyl-5-(4-pyridinyl)benzamide] | ≤ 10 | – | ≤ 20000 | –
Cn1cc(-c2ccc(OCc3ccc(F)cc3)c(C(=O)Nc3ccnnc3)c2)cn1 [Example 94, 2-{[(4-Fluorophenyl)methyl]oxy}-5-(1-methyl-1H-pyrazol-4-yl)-N-4-pyridazinylbenzamide] | ≤ 100 | 12.6 | ≤ 20000 | 100
Cc1nocc1NC(=O)c1cc(-c2ccncc2)ccc1OCc1ccccc1 [Example 61, N-(3-Methyl-4-isoxazolyl)-2-[(phenylmethyl)oxy]-5-(4-pyridinyl)benzamide] | ≤ 10 | – | ≤ 20000 | –
O=C(Nc1ccnnc1)c1cc(-c2cn[nH]c2)ccc1OCc1ccc(F)cc1 [Example 92, 2-{[(4-Fluorophenyl)methyl]oxy}-5-(1H-pyrazol-4-yl)-N-4-pyridazinylbenzamide] | ≤ 10 | – | ≤ 20000 | –
Nc1cc(-c2ccc(OCc3ccccc3)c(C(=O)Nc3cccnc3)c2)ccn1 [Example 122, 5-(2-Amino-4-pyridinyl)-2-[(phenylmethyl)oxy]-N-3-pyridinylbenzamide] | ≤ 100 | – | ≤ 20000 | –
O=C(Nc1cncc(F)c1)c1cc(Br)ccc1OCc1ccccc1 [Example 98, 5-Bromo-N-(5-fluoro-3-pyridinyl)-2-[(phenylmethyl)oxy]benzamide] | ≤ 100 | – | > 25100 | –

The next lines start with results.

IC50 [1, 3] [nM] | IC50 [1, 5] [nM] | Compound | IC50 [2, 4] [nM] | IC50 [2, 6] [nM]
≤ 100 | – | O=C(Nc1cccnc1)c1cc(OC[C@@H]2CCCN2)ccc1OCc1ccccc1 [Example 46, 2-[(Phenylmethyl)oxy]-N-3-pyridinyl-5-{[(2S)-2-pyrrolidinylmethyl]oxy}benzamide] | ≤ 20000 | –
≤ 100 | – | O=C(Nc1cccnc1)c1cc(C(=O)N2CCCC2)ccc1OCc1ccccc1 [Example 37, 2-[(Phenylmethyl)oxy]-N-3-pyridinyl-5-(1-pyrrolidinylcarbonyl)benzamide] | ≤ 20000 | –
≤ 10 | – | COC(=O)NCc1ccc(OCc2ccccc2)c(C(=O)Nc2cccnc2)c1 [Example 86, Methyl ({4-[(phenylmethyl)oxy]-3-[(3-pyridinylamino)carbonyl]phenyl}methyl)carbamate] | ≤ 20000 | –
≤ 10 | – | O=C(Nc1cccnc1)c1cc(-c2cccnc2)ccc1OCc1ccccc1 [Example 101, 2-[(Phenylmethyl)oxy]-N,5-di-3-pyridinylbenzamide] | ≤ 20000 | –
≤ 10 | – | C[C@@H]1CN(c2ccc(OCc3ccccc3)c(C(=O)Nc3cccnc3)c2)C[C@H](C)N1C [Example 103, 2-[(Phenylmethyl)oxy]-N-3-pyridinyl-5-[(3R,5S)-3,4,5-trimethyl-1-piperazinyl]benzamide] | ≤ 20000 | –
≤ 100 | 79.4 | O=C(Nc1cccnc1)c1cc(C(=O)N2CCOCC2)ccc1OCc1ccccc1 [Example 38, 5-(4-Morpholinylcarbonyl)-2-[(phenylmethyl)oxy]-N-3-pyridinylbenzamide] | ≤ 20000 | 7940
≤ 10 | – | CCOC(=O)CCc1ccc(OCc2ccccc2)c(C(=O)Nc2cccnc2)c1 [Example 87, Ethyl 3-{-4-[(phenylmethyl)oxy]-3-[(3-pyridinylamino)carbonyl]phenyl}propanoate] | ≤ 20000 | –
≤ 100 | 63.1 | O=C(Nc1cccnc1)c1cc(C(=O)N2CCOCC2)ccc1OCc1ccc(F)cc1 [Example 127, 2-{[(4-Fluorophenyl)methyl]oxy}-5-(4-morpholinylcarbonyl)-N-3-pyridinylbenzamide] | ≤ 20000 | 10000
